The source of these data is patent US11286268B1, “EIF4E-inhibiting compounds and methods” (EFFECTOR THERAPEUTICS, INC., priority 2019, dated 2022).

This assay addresses recombinant eIF4E (Homo sapiens (Human), UniProt P06730). Description: Fluorescence polarization competition assay for eIF4E binding potency. An outline of the steps:
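IC50 derived from fluorescence polarization over an 8-point, 3-fold compound series after 30 min room-temperature equilibration in the dark. Mix: eIF4E 75 nM pre-bound 5 min to 20 nM EDA-m^7GDP-ATTO-550; buffer 20 mM Tris pH 7.5, 100 mM NaCl, 1 mM DTT, 0.02% Tween-20; DMSO 1%.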
Background: Fluorescence polarisation rises when a labelled molecule tumbles more slowly, as on binding a larger partner.

[1] abbreviates: fluorescence polarization competition, 75 nM recombinant eIF4E, 20 nM EDA-m7GDP-ATTO-550, IC50 class, read-out: elF4E FP.
Setting [2] is: inhibition of eIF4E/EDA-m7GDP-ATTO-550 binding by 50%, Table 4B calculated values, read-out: IC50.
[3] abbreviates: inhibition of eIF4E/EDA-m7GDP-ATTO-550 binding, calculated IC50 values, Table 4B, read-out: IC50.

Like-named read-outs stand apart in the source and are kept apart here.

Chain of recombinant eIF4E (P06730 whole entry): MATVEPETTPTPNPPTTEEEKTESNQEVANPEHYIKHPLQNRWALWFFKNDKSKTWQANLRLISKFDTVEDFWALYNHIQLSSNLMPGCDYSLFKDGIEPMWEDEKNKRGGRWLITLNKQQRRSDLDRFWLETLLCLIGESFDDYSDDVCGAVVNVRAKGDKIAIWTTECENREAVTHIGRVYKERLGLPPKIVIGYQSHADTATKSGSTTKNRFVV

Turning to `Cc1ncc(-c2cc(Cl)ccc2OCCn2c(C)nc3cnc(C4CC4)c(C#N)c3c2=O)c2scc(C(=O)O)c12` [compound 900], the IC50 is, setting by setting: under setting [1], less than 50 nM; under setting [2], 11.2 nM.
Consider `Cc1nc2cnc(N(C)[C@H]3CC[C@H](N4CC(F)(F)C4)CC3)c(C#N)c2c(=O)n1CC#Cc1ccc(Cl)cc1-c1ccnc2c(C(=O)O)csc12` [compound 1099], for which the IC50 under setting [1] was less than 50 nM.
On to `Cc1cc(-c2c(C(F)(F)F)cc3nc(C)n(CCOc4ccc(Cl)cc4-c4cc(C)nc5c(C(=O)O)csc45)c(=O)c3c2C#N)nc(C)n1` [compound 963], for which the IC50 under setting [1] is less than 50 nM and the IC50 under setting [2] is 7.84 nM.
As for `Cc1nc2c(N3CCN(CCOC(F)(F)F)CC3)ncc(C#N)c2c(=O)n1CCOc1ccc(Cl)cc1-c1ccnc2c(C(=O)O)csc12` [compound 1395], the IC50 under setting [3] was 29.6 nM.
`Cc1cc(-c2cc(Cl)ccc2C#CCn2c(C)nc3c(C)nc(N4CCN(C)CC4)c(C#N)c3c2=O)c2scc(C(=O)O)c2n1` [compound 450]: the IC50 was less than 50 nM under setting [1] and 7.84 nM under setting [2].
The corresponding values for `N#Cc1cc2c(=O)n(C[C@@H]3C[C@H]3c3ccc(Cl)cc3-c3cccc(C(=O)O)c3)cnc2cn1` [compound 43] are more than 1000 nM and more than 10000 nM.
As to `Cc1nc2cnc(N(C)C3CCN([C@H]4C[C@H](OC(F)F)C4)CC3)c(C#N)c2c(=O)n1CC#Cc1ccc(Cl)cc1-c1ccnc2c(C(=O)NS(=O)(=O)C3COC3)csc12` [compound 1762], the IC50 under setting [3] is 25 nM.
In the case of `N#Cc1c(F)cc(CCOc2ccc(Cl)cc2-c2cccc(C(=O)O)c2)c2c(=O)[nH]c(Nc3ccccc3)nc12` [compound 174], the IC50 under setting [1] was in the range of 50 to 1000 nM and the IC50 under setting [2] is 52.1 nM.
The corresponding values for `Cc1c(CC#Cc2ccc(Cl)cc2-c2ccnc3c(C(=O)O)csc23)c(=O)c2c(C#N)cc(C(F)(F)F)cc2n1C` [compound 665] are less than 50 nM and 16.5 nM.
The corresponding values for `Cc1nc2cc(C(F)(F)F)c(Cl)c(C#N)c2c(=O)n1CCOc1ccc(Cl)cc1-c1ccnc2c(C(=O)NS(C)(=O)=O)csc12` [compound 519] are less than 50 nM and 37.8 nM.
`Cc1nc2cnc(SC3CCN(CC(F)(F)F)CC3)c(C#N)c2c(=O)n1CCOc1ccc(Cl)cc1-c1ccnc2c(C(=O)O)csc12` [compound 1349]: under setting [3], the IC50 was 36.5 nM.
For `Cc1nc2cnc(C3=C(C(C)(C)C)CN(C)C3)c(C#N)c2c(=O)n1CCOc1ccc(Cl)cc1-c1ccnc2c(C(=O)O)csc12` [compound 1332], under setting [3], the IC50 was 34.5 nM.
As to `Cc1nc2cnc(C3=CCN(C4CC4)CC3)c(C#N)c2c(=O)n1CC#Cc1ccc(Cl)cc1-c1ccnc2c(C(=O)O)csc12` [compound 1461], under setting [3], the IC50 is 13.8 nM.
Turning to `Cc1cc(-c2cc(Cl)ccc2OCCn2c(C)nc3cc(C(F)(F)F)c(CN4CCN(CC(F)F)CC4)c(C#N)c3c2=O)c2scc(C(=O)O)c2n1` [compound 739], the IC50 is, setting by setting: under setting [1], less than 50 nM; under setting [2], 30.8 nM.
The corresponding values for `Cc1nc2cc(C(F)(F)F)cc(C#N)c2c(=O)n1CCOc1ccc(Cl)cc1-c1csc2c(C(=O)O)ccnc12` [compound 299] are less than 50 nM and 22.3 nM.
As for `Cc1nc2cnc(N3CC4(CN(CCF)C4)C3)c(C#N)c2c(=O)n1CC#Cc1ccc(Cl)cc1-c1ccnc2c(C(=O)O)csc12` [compound 892], the IC50 is, setting by setting: under setting [1], less than 50 nM; under setting [2], 36 nM.
On to `Cc1cc(-c2cc(Cl)ccc2OCCn2c(C)nc3cc(C(F)(F)F)c(Cl)nc3c2=O)c2scc(C(=O)O)c2n1` [compound 1978], for which the IC50 under setting [3] is 25.3 nM.
`Cc1cc(-c2cc(Cl)ccc2OCCn2c(C)nc3cc(C(F)(F)F)c(-c4scnc4C)nc3c2=O)c2scc(C(=O)O)c2n1` [compound 939]: the IC50 under setting [1] is less than 50 nM and the IC50 under setting [2] was 12.1 nM.
The corresponding values for `Cc1nc2cc(C(F)(F)F)c(N3CCN(CCO)CC3)c(C#N)c2c(=O)n1CCOc1ccc(Cl)cc1-c1ccnc2ccsc12` [compound 852] are less than 50 nM and 21.4 nM.
With `Cc1cc(-c2cc(Cl)ccc2OCCn2c(C)nc3cc(C(F)F)c(-c4cncc(F)c4)c(C#N)c3c2=O)c2scc(C(=O)O)c2n1` [compound 1387], the IC50 under setting [3] is 22.8 nM.
Regarding `CCN(c1ncc2nc(C)n(CC#Cc3ccc(Cl)cc3-c3ccnc4c(C(=O)NS(=O)(=O)C5CC5)csc34)c(=O)c2c1C#N)C1CCN(C2COC2)CC1` [compound 1749], under setting [3], the IC50 is 16.4 nM.
Take `COC1CCN(c2ncc3nc(C)n(CCOc4ccc(Cl)cc4-c4cc(C)nc5c(C(=O)O)csc45)c(=O)c3c2C#N)C1` (stereo not drawn) [compound 1234]: the IC50 runs as follows: under setting [1], less than 50 nM; under setting [3], 30.2 nM.
With `Cc1nc2cnc(C3CC3)c(C#N)c2c(=O)n1CCOc1ccc(Cl)cc1-c1ccc(Cl)c2c(C(=O)O)csc12` [compound 773], the IC50 was less than 50 nM under setting [1] and 10.2 nM under setting [2].
For `Cc1nc2cnc(N3CCN(C(C)(C)CC(F)(F)F)CC3)c(C#N)c2c(=O)n1CCOc1ccc(Cl)cc1-c1ccnc2c(C(=O)O)csc12` [compound 845], the IC50 reads like this: under setting [1], less than 50 nM; under setting [2], 12.7 nM.
In the case of `Cc1ccc(-c2cc(Cl)ccc2OCCn2c(C)nc3cc(C(F)(F)F)c(N4CCN(C)CC4)c(C#N)c3c2=O)c2scc(C(=O)O)c12` [compound 1218], the IC50 reads like this: under setting [1], less than 50 nM; under setting [3], 13.1 nM.
For `Cc1nc2cnc(N(C)C3CCN(CC(F)(F)Cl)CC3)c(C#N)c2c(=O)n1CC#Cc1ccc(Cl)cc1-c1ccnc2c(C(=O)O)csc12` [compound 1585], under setting [3], the IC50 was 15.2 nM.
Regarding `Cc1nc2cc(C(F)(F)F)cc(C#N)c2c(=O)n1CCOc1ccc(C#N)cc1-c1ccnc2c(C(=O)O)csc12` [compound 287], the IC50 is, setting by setting: under setting [1], less than 50 nM; under setting [2], 47.8 nM.
In the case of `Cc1nc2cnc(N(C)C3CCN(CC(F)(F)c4ccccc4)CC3)c(C#N)c2c(=O)n1CC#Cc1ccc(Cl)cc1-c1ccnc2c(C(=O)O)csc12` [compound 1555], under setting [3], the IC50 was 23.9 nM.
Still for that read-out and setting: the same measure for `Cc1nc2cnc(N3CCN(C4CC4)C(C(F)(F)F)C3)c(C#N)c2c(=O)n1CCOc1ccc(Cl)cc1-c1ccnc2c(C(=O)O)csc12` (stereo not drawn) [compound 1438]: 40.8 nM.
`Cc1cc(-c2cc(Cl)ccc2OCCn2c(C)nc3cc(C(F)(F)F)c(Cc4cccnc4)c(Cl)c3c2=O)c2scc(C(=O)O)c2n1` [compound 399]: the IC50 is 50 to 1000 nM under setting [1] and 69.9 nM under setting [2].
The corresponding values for `Cc1cc(-c2cc(Cl)ccc2OCCn2c(C)nc3cc(C(F)(F)F)cc(C#N)c3c2=O)c2csc(C(=O)O)c2n1` [compound 447] are 50 to 1000 nM and 84.8 nM.
Take `Cc1nc2cnc(N(C)C3CC4(C3)CN(CC(F)(F)F)C4)c(C#N)c2c(=O)n1CC#Cc1ccc(Cl)cc1-c1ccnc2c(C(=O)O)csc12` [compound 827]: the IC50 under setting [1] was less than 50 nM and the IC50 under setting [2] was 5.72 nM.
In the case of `Cc1cc(-c2cc(Cl)ccc2OCCn2c(C)nc3cc(-c4cccnc4)c(Cl)c(C#N)c3c2=O)c2scc(C(=O)O)c2n1` [compound 1098], the IC50 runs as follows: under setting [1], less than 50 nM; under setting [2], 15.6 nM.
In the case of `Cc1cc(-c2cc(Cl)ccc2OCCn2c(C)nc3cc(C(F)(F)F)c(C#N)nc3c2=O)c2scc(C(=O)O)c2n1` [compound 785], the IC50 is less than 50 nM under setting [1] and 18.2 nM under setting [2].
Turning to `Cc1ccc(-c2c(C(F)(F)F)cc3nc(C)n(CCOc4ccc(Cl)cc4-c4cc(C)nc5c(C(=O)O)csc45)c(=O)c3c2C#N)cn1` [compound 1910], the IC50 under setting [3] is 47.4 nM.
On to `Cc1cc(C#N)c2c(=O)n(CCOc3ccc(Cl)cc3-c3ccnc4c(C(=O)O)csc34)c(C)nc2c1` [compound 573], for which the IC50 reads like this: under setting [1], 50 to 1000 nM; under setting [2], 54.7 nM.
Regarding `Cc1nc2cc(F)cc(C#N)c2c(=O)n1CCOc1ccc(Cl)cc1-c1ccnc2c(C(=O)O)csc12` [compound 1937], the IC50 under setting [3] was 38.2 nM.
On to `Cc1ncc(F)cc1-c1c(C(F)(F)F)cc2nc(C)n(CCOc3ccc(Cl)cc3-c3ccnc4ccsc34)c(=O)c2c1C#N` [compound 706], for which the IC50 under setting [1] lay in the range of 50 to 1000 nM.
Regarding `COc1c(C(F)(F)F)cc2nc(C)n(CCOc3ccc(Cl)cc3-c3cc(C)nc4c(C(=O)O)csc34)c(=O)c2c1C#N` [compound 1036], the IC50 was less than 50 nM under setting [1] and 3.51 nM under setting [2].
Take `CCC(F)(F)CN1CCC(N(C)c2ncc3nc(C)n(CC#Cc4ccc(Cl)cc4-c4ccnc5c(C(=O)O)csc45)c(=O)c3c2C#N)CC1` [compound 1502]: the IC50 under setting [3] was 26.2 nM.
With `Cc1cc(C(=O)O)c(C#N)c(-c2cc(Cl)ccc2OCCn2cnc3cnc(C#N)cc3c2=O)n1` [compound 116], the IC50 reads like this: under setting [1], more than 1000 nM; under setting [2], more than 3000 nM.
Consider `Cc1nc2cnc(N3CCN(C4CC4)CC3)c(C#N)c2c(=O)n1CC#Cc1ccc(Cl)cc1-c1ccnc2c(C(=O)O)csc12` [compound 1354], for which the IC50 under setting [3] was 21.6 nM.
As to `Cc1nc2cc(C(F)(F)F)cc(C#N)c2c(=O)n1CCOc1ccc(Cl)cc1-c1nsc2c(C(=O)O)csc12` [compound 315], the IC50 is, setting by setting: under setting [1], 50 to 1000 nM; under setting [2], 582 nM.
`Cc1nc2cnc(N3CCC4(CC3)CN(CC(F)F)C4)c(C#N)c2c(=O)n1CC#Cc1ccc(Cl)cc1-c1ccnc2c(C(=O)NS(C)(=O)=O)csc12` [compound 1648]: the IC50 under setting [3] is 13.3 nM.
For the molecule `Cc1cc(-c2cc(Cl)ccc2OCCn2c(C)nc3c(C)nc(C4CC4)c(C#N)c3c2=O)c2scc(C(=O)O)c2n1` [compound 742], the IC50 is less than 50 nM under setting [1] and 32.5 nM under setting [2].
Regarding `Cc1nc2cnc(N(C)C3CCN(C4CC4)CC3)c(C#N)c2c(=O)n1CC#Cc1ccc(Cl)cc1-c1ccnc2c(C(=O)O)csc12` [compound 1171], the IC50 reads like this: under setting [1], less than 50 nM; under setting [2], 13 nM.
`N#Cc1cc(C(F)(F)F)cc2ncn(CCOc3ccc(Cl)cc3-c3ccnc4c(C(=O)O)csc34)c(=O)c12` [compound 1899]: under setting [3], the IC50 is 16.4 nM.
